How the values were obtained:
Assay type in all cases: in vitro ADME
[1] = Metabolic stability in CES1-KO mouse liver homogenate; settings: tissue homogenate, 10 μM, 37° C.
Protocol: (§1) In vitro stability studies were done using CES1KO mouse plasma, human plasma, CES1-KO mouse liver, and human liver microsomes as previously described. For tissue homogenate stability studies, washed tissue was diluted 10-fold in 0.1 M potassium phosphate buffer and homogenized using probe sonication. Crude homogenate was then aliquoted to 1 mL, and spiked with 10 mM stock of the analyte in DMSO to achieve a 10 μM final concentration. The plasma stability of the prodrugs was determined by spiking the analyte in 1 mL of plasma. The plasma and tissues were incubated in an orbital shaker at 37° C. Stability in human liver microsomes was assessed at a final prodrug concentration of 1 μM with 0.2 mg/mL protein for microsomes. All the stability studies were conducted at predetermined times (0 and 60 min), where 50 μL aliquots of the mixture in triplicate were removed and the reaction was quenched by addition of 5 times the volume of ice-cold methanol spiked with the internal standard (losartan: 0.5 μM). The samples were vortex-mixed for 30 s and centrifuged at 10,000 g for 10 min at 4° C. An amount of 50 μL of the supernatant was diluted with 50 μL of water and transferred to a 250 μL polypropylene vial sealed with a Teflon cap. Prodrug disappearance was monitored over time using liquid chromatography and mass spectrometry (LC-MS).
(§2) Analyses were performed on a Dionex ultra high-performance LC system coupled with Q Exactive Focus orbitrap mass spectrometer (Thermo Fisher Scientific Inc., Waltham MA). Separation was achieved using Agilent Eclipse Plus column (100×2.1 mm i.d., maintained at 35° C.) packed with a 1.8 μm C18 stationary phase. The mobile phase consisted of 0.1% formic acid in water and 0.1% formic acid in acetonitrile, […] were operated at a flow rate of 0.3 mL/min for 7 min using gradient elution. The mass spectrometer controlled by Xcalibur software 4.0.27.13 (Thermo Scientific) was operated with a HESI ion source in positive ionization mode. Metabolites were identified in the full-scan mode (from m/z 50 to 1600) by comparing […] samples

[2] = Metabolic stability in human liver microsomes; settings: 1 μM prodrug, 0.2 mg/mL protein
Protocol: as §1, §2

[3] = Plasma stability in CES1KO mouse plasma; settings: 37° C., 60 min
Protocol: as §1, §2

[4] = Plasma stability in human plasma; settings: 37° C.
Protocol: as §1, §2

| SMILES | Liver Stability (% Remaining at 60 min) CES1^−/− Mouse Liver [1] | Liver Stability (% Remaining at 60 min) Human Liver Microsomes [2] | Plasma Stability (% Remaining at 60 min) CES1^−/− Mouse Plasma [3] | Plasma Stability (% Remaining at 60 min) Human Plasma [4] |
| --- | --- | --- | --- | --- |
| CN(C)CC(=O)N[C@@H](CCC(=O)N[C@@H](CCC(=O)C=[N+]=[N-])C(=O)N[C@@H](CCC(=O)C=[N+]=[N-])C(=O)OC(C)(C)C)C(=O)[O-].[Na+] [Prodrug P15, Sodium N^5—((S)-1-(((S)-1-(tert-butoxy)-6-diazo-1,5-dioxohexan-2-yl)amino)-6-diazo-1,5-dioxohexan-2-yl)-N^2-(dimethylglycyl)-L-glutaminate] | 99.9 ± 3.45% | 93.2 ± 4.29% | >100% | 104 ± 8.45% |
| CCOC(=O)[C@H](CCC(=O)N[C@@H](CCC(=O)C=[N+]=[N-])C(=O)N[C@@H](CCC(=O)C=[N+]=[N-])C(=O)[O-])NC(=O)CN(C)C.[Na+] [Prodrug P11, Sodium (6S,11S,14S)-11,14-bis(4-diazo-3-oxobutyl)-6-(ethoxycarbonyl)-2-methyl-4,9,12-trioxo-2,5,10,13-tetraazapentadecan-15-oate] | 96.3 ± 1.80% | 103 ± 4.97% | 91.8 ± 4.16% | 83.6 ± 1.76% |
| [N-]=[N+]=CC(=O)CC[C@H](NC(=O)[C@H](CCC(=O)C=[N+]=[N-])NC(=O)CC[C@H](NC(=O)CN)C(=O)[O-])C(=O)[O-].[Na+].[Na+] [Prodrug P10, Sodium (S)-2-((S)-2-((S)-4-(2-aminoacetamido)-4-carboxylatobutanamido)-6-diazo-5-oxohexanamido)-6-diazo-5-oxohexanoate] | 90.4 ± 2.76% | 90.4 ± 4.10% | 104 ± 3.67% | 90.5 ± 6.35% |

Next, values leading:

| Liver Stability (% Remaining at 60 min) CES1^−/− Mouse Liver [1] | Liver Stability (% Remaining at 60 min) Human Liver Microsomes [2] | Plasma Stability (% Remaining at 60 min) CES1^−/− Mouse Plasma [3] | Plasma Stability (% Remaining at 60 min) Human Plasma [4] | SMILES |
| --- | --- | --- | --- | --- |
| 1.55 ± 0.77% | 109 ± 2.22% | 107 ± 6.6% | 86.6 ± 2.69% | CCOC(=O)[C@H](CCC(=O)C=[N+]=[N-])NC(=O)[C@H](CCC(=O)C=[N+]=[N-])NC(=O)CC[C@H](NC(=O)CN(C)C)C(=O)O [Prodrug P13, N^5—((S)-6-diazo-1-(((S)-6-diazo-1-ethoxy-1,5-dioxohexan-2-yl)amino)-1,5-dioxohexan-2-yl)-N^2-(dimethylglycyl)-L-glutamine] |
| 111 ± 9.27% | 99.6 ± 3.50% | 95.6 ± 0.44% | 76.2 ± 7.25% | CN(C)CC(=O)N[C@@H](CCC(=O)N[C@@H](CCC(=O)C=[N+]=[N-])C(=O)N[C@@H](CCC(=O)C=[N+]=[N-])C(=O)[O-])C(=O)[O-].[Na+].[Na+] [Prodrug P12, Sodium (6S,11S,14S)-6-carboxylato-11,14-bis(4-diazo-3-oxobutyl)-2-methyl-4,9,12-trioxo-2,5,10,13-tetraazapentadecan-15-oate] |
| 0.964 ± 0.031% | 98.0 ± 5.36% | 94.0 ± 2.47% | 93.7 ± 4.92% | CC(C)OC(=O)[C@H](CCC(=O)N[C@@H](CCC(=O)C=[N+]=[N-])C(=O)N[C@@H](CCC(=O)C=[N+]=[N-])C(=O)OC(C)C)NC(=O)CNC(=O)CN(C)C [Prodrug P17, Isopropyl (9S,14S,17S)-14,17-bis(4-diazo-3-oxobutyl)-9-(isopropoxycarbonyl)-2-methyl-4,7,12,15-tetraoxo-2,5,8,13,16-pentaazaoctadecan-18-oate] |
